Tests used:
Experiment in all cases: relative viability (nuclei count vs DMSO), 5 days (fraction); higher = more cells survive
NCI-H2228 = tested on: NCI-H2228
In short: (§1)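 Lung cancer cell lines in 1536-well plates were dosed by pin tool the day after seeding, either with one drug alone or with a fixed anchor-drug dose plus five library-drug doses (not always all listed) in √10 steps. After 5 days, cells were fixed and their nuclei stained in one step (final 0.05% Triton X-100, 1% formaldehyde, 1 ug/ml Hoechst), then counted on 4× images. Relative viability is the nuclei count in treated wells divided by that in vehicle wells. Values are medians of duplicate plates.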

NCI-H647 = tested on: NCI-H647
In short: as §1

NCI-H1944 = tested on: NCI-H1944
In short: as §1

BEN = tested on: BEN
In short: as §1

NCI-H727 = tested on: NCI-H727
In short: as §1

NCI-H1650 = tested on: NCI-H1650
In short: as §1

NCI-H1792 = tested on: NCI-H1792
In short: as §1

NCI-H2405 = tested on: NCI-H2405
In short: as §1

LXF-289 = tested on: LXF-289
In short: as §1

HCC-827 = tested on: HCC-827
In short: as §1

NCI-H3122 = tested on: NCI-H3122
In short: as §1

CAL-12T = tested on: CAL-12T
In short: as §1

NCI-H322M = tested on: NCI-H322M
In short: as §1

LCLC-103H = tested on: LCLC-103H
In short: as §1

SK-LU-1 = tested on: SK-LU-1
In short: as §1

RERF-LC-KJ = tested on: RERF-LC-KJ
In short: as §1

LCLC-97TM1 = tested on: LCLC-97TM1
In short: as §1

NCI-H2087 = tested on: NCI-H2087
In short: as §1

201T = tested on: 201T
In short: as §1

NCI-H1437 = tested on: NCI-H1437
In short: as §1

Structure (SMILES): Cc1sc2c(c1C)C(c1ccc(Cl)cc1)=N[C@@H](CC(=O)OC(C)(C)C)c1nnc(C)n1-2 [JQ1] + C[C@@H](Oc1cc(-c2cnn(C3CCNCC3)c2)cnc1N)c1c(Cl)ccc(F)c1Cl [Crizotinib] (partner 1 µM)
- relative viability (NCI-H2228; first compound 0.04 µM): 0.455
- relative viability (NCI-H2228; first compound 0.1265 µM): 0.417
- relative viability (NCI-H2228; first compound 0.4 µM): 0.38
- relative viability (NCI-H2228; first compound 1.265 µM): 0.306
- relative viability (NCI-H2228; first compound 4 µM): 0.317
- relative viability (NCI-H647; first compound 0.04 µM): 1.03
- relative viability (NCI-H647; first compound 0.1265 µM): 0.486
- relative viability (NCI-H647; first compound 0.4 µM): 0.276
- relative viability (NCI-H647; first compound 1.265 µM): 0.0835
- relative viability (NCI-H647; first compound 4 µM): 0.0629
- relative viability (NCI-H1944; first compound 0.04 µM): 1.02
- relative viability (NCI-H1944; first compound 0.1265 µM): 0.905
- relative viability (NCI-H1944; first compound 0.4 µM): 0.719
- relative viability (NCI-H1944; first compound 1.265 µM): 0.574
- relative viability (NCI-H1944; first compound 4 µM): 0.447
- relative viability (BEN; first compound 0.04 µM): 0.67
- relative viability (BEN; first compound 0.1265 µM): 0.84
- relative viability (BEN; first compound 0.4 µM): 0.51
- relative viability (BEN; first compound 1.265 µM): 0.335
- relative viability (BEN; first compound 4 µM): 0.229
- relative viability (NCI-H727; first compound 0.04 µM): 0.823
- relative viability (NCI-H727; first compound 0.1265 µM): 1.02
- relative viability (NCI-H727; first compound 0.4 µM): 0.631
- relative viability (NCI-H727; first compound 1.265 µM): 0.338
- relative viability (NCI-H727; first compound 4 µM): 0.362
- relative viability (NCI-H1650; first compound 0.04 µM): 0.948
- relative viability (NCI-H1650; first compound 0.1265 µM): 0.609
- relative viability (NCI-H1650; first compound 0.4 µM): 0.735
- relative viability (NCI-H1650; first compound 1.265 µM): 0.126
- relative viability (NCI-H1650; first compound 4 µM): 0.141
- relative viability (NCI-H1792; first compound 0.04 µM): 0.968
- relative viability (NCI-H1792; first compound 0.4 µM): 0.948
- relative viability (NCI-H1792; first compound 1.265 µM): 0.768
- relative viability (NCI-H1792; first compound 4 µM): 0.644
- relative viability (NCI-H2405; first compound 0.04 µM): 0.829
- relative viability (NCI-H2405; first compound 0.1265 µM): 0.711
- relative viability (NCI-H2405; first compound 0.4 µM): 0.749
- relative viability (NCI-H2405; first compound 1.265 µM): 0.555
- relative viability (NCI-H2405; first compound 4 µM): 0.395
- relative viability (LXF-289; first compound 0.04 µM): 0.84
- relative viability (LXF-289; first compound 0.1265 µM): 0.746
- relative viability (LXF-289; first compound 0.4 µM): 0.743
- relative viability (LXF-289; first compound 1.265 µM): 0.677
- relative viability (LXF-289; first compound 4 µM): 0.479
- relative viability (HCC-827; first compound 0.04 µM): 1.01
- relative viability (HCC-827; first compound 0.4 µM): 0.663
- relative viability (HCC-827; first compound 1.265 µM): 0.672
- relative viability (HCC-827; first compound 4 µM): 0.668
- relative viability (NCI-H3122; first compound 0.04 µM): 0.312
- relative viability (NCI-H3122; first compound 0.1265 µM): 0.315
- relative viability (NCI-H3122; first compound 0.4 µM): 0.354
- relative viability (NCI-H3122; first compound 1.265 µM): 0.323
- relative viability (NCI-H3122; first compound 4 µM): 0.413
- relative viability (CAL-12T; first compound 0.04 µM): 0.528
- relative viability (CAL-12T; first compound 0.1265 µM): 0.316
- relative viability (CAL-12T; first compound 0.4 µM): 0.316
- relative viability (CAL-12T; first compound 1.265 µM): 0.133
- relative viability (CAL-12T; first compound 4 µM): 0.103
- relative viability (NCI-H322M; first compound 0.04 µM): 0.83
- relative viability (NCI-H322M; first compound 0.1265 µM): 0.839
- relative viability (NCI-H322M; first compound 0.4 µM): 0.856
- relative viability (NCI-H322M; first compound 1.265 µM): 0.533
- relative viability (NCI-H322M; first compound 4 µM): 0.458
- relative viability (LCLC-103H; first compound 0.04 µM): 1
- relative viability (LCLC-103H; first compound 0.1265 µM): 0.94
- relative viability (LCLC-103H; first compound 0.4 µM): 0.847
- relative viability (LCLC-103H; first compound 1.265 µM): 0.612
- relative viability (LCLC-103H; first compound 4 µM): 0.506
- relative viability (SK-LU-1; first compound 0.04 µM): 0.96
- relative viability (SK-LU-1; first compound 0.1265 µM): 0.615
- relative viability (SK-LU-1; first compound 0.4 µM): 0.481
- relative viability (SK-LU-1; first compound 1.265 µM): 0.193
- relative viability (SK-LU-1; first compound 4 µM): 0.148
- relative viability (RERF-LC-KJ; first compound 0.04 µM): 0.783
- relative viability (RERF-LC-KJ; first compound 0.1265 µM): 0.879
- relative viability (RERF-LC-KJ; first compound 0.4 µM): 0.777
- relative viability (RERF-LC-KJ; first compound 1.265 µM): 0.635
- relative viability (RERF-LC-KJ; first compound 4 µM): 0.29
- relative viability (LCLC-97TM1; first compound 0.1265 µM): 0.285
- relative viability (LCLC-97TM1; first compound 0.4 µM): 0.19
- relative viability (LCLC-97TM1; first compound 1.265 µM): 0.118
- relative viability (LCLC-97TM1; first compound 4 µM): 0.117
- relative viability (NCI-H2087; first compound 0.04 µM): 0.901
- relative viability (NCI-H2087; first compound 0.4 µM): 0.862
- relative viability (NCI-H2087; first compound 1.265 µM): 0.602
- relative viability (NCI-H2087; first compound 4 µM): 0.344
- relative viability (201T; first compound 0.04 µM): 1.05
- relative viability (201T; first compound 0.1265 µM): 0.882
- relative viability (201T; first compound 0.4 µM): 0.93
- relative viability (201T; first compound 1.265 µM): 0.73
- relative viability (201T; first compound 4 µM): 0.602
- relative viability (NCI-H1437; first compound 0.04 µM): 0.849
- relative viability (NCI-H1437; first compound 0.1265 µM): 0.896
- relative viability (NCI-H1437; first compound 0.4 µM): 0.666
- relative viability (NCI-H1437; first compound 1.265 µM): 0.29
- relative viability (NCI-H1437; first compound 4 µM): 0.248

Reference: the supplement of paper PMC10307832
